Data taken from paper PMC7532663, “Pharmacological inhibition of mTORC1 increases CCKBR-specific tumor uptake of radiolabeled minigastrin analogue [^177Lu]Lu-PP-F11N” (Theranostics, 2020).
Where “and” joins values, the source holds several entries; their conditions need not be identical. Equal entries are not always repeated.

Assays:
A431/CCKBR cells [1] = assay: CellTiter 96 AQueous (MTS) proliferation assay; assay type: cell-based, human; conditions: for Proliferation [A570]: 10 μM kinase inhibitor, MTS absorbance at 570 nm, reference 650 nm, mean of triplicate; for Proliferation (ratio): ratio treatment/control, 10 μM inhibitor
A431/CCKBR cells [2] = assay: Kinase inhibitor library screen: [177Lu]Lu-PP-F11N cell uptake; assay type: cell-based, human; conditions: ratio treatment/control; 10 μM inhibitor
[3] = test system: mTORC1-regulated phosphorylation of the ribosomal protein S6 at Ser235/236; assay: WB analysis of phospho-S6; assay type: cell-based, human; conditions: for phosphorylation of S6 at Ser235/236 (WB): A431/CCKBR cells, 100 nM RAD001 or 10 mM metformin
Protocol: (§1) Antibodies against phospho-S6 at S235/S236 (D57.2.2F), ERK1/2 (9102), phospho-ERK1/2 (T202/Y204), GAPDH (14C10) and HA-Tag (C29F4) were obtained from Cell Signaling Technology, whereas the anti-CCKBR (ab77077) was from Abcam. Cells were homogenized in lysis buffer (50 mM Tris-HCl pH 7.5, 150 mM NaCl, 1% Triton X, 0.1% SDS supplemented with 1 mM sodium orthovanadate, 1 mM NaF and protease inhibitor cocktail (Roche)). 50 μg of total protein lysates were separated by SDS-PAGE and transferred to PVDF membranes (Millipore) by electroblotting. Membranes were blocked with 5% skim milk in TBST (0.1% Tween 20) for 1 h, and incubated with 2% BSA in TBST overnight with the primary antibody followed by 2 h incubation with HRP-conjugated secondary antibody. Signals were produced by using a chemiluminescence reagent (ECL) and acquired by ImageQuant RT ECL Imager (GE Healthcare). Prior to CCKBR detection by WB, protein lysates were subjected to deglycosylation. Briefly, 18 μL of total protein lysates (50 µg) were mixed with 2 μL of 10× denaturing buffer (5% SDS, 0.4 M DTT) and incubated for 10 min at RT. Next, 4 μL of 10× Glycobuffer (0.5 M sodium phosphate, pH 7.5), 4 μL of 10% Tween-20 and 10 μL of water were added. Finally, 2 μL of PNGase F (Sigma) was added and the reaction was carried out for 16 h at 37°C.

A431/CCKBR cells [4] = assay: Total protein concentration of cell lysates; assay type: cell-based, human; conditions: for total protein level compared to control: 100 nM RAD001 or 10 mM metformin, 20 h
Source text: (§2) […]. […] […].

A431/CCKBR tumors = assay: HE staining and immunohistochemistry of tumor sections; assay type: in vivo, mouse; conditions: for mitotic index / necrosis (necrotic area) / Ki67 positive cells: 5 days treatment, mean ± SD; for tumor vascularization: HE and CD34, five-day treatment; for necrosis (necrotic area): HE stain; for Ki67 positive cells: IHC
Protocol: Formalin-fixed, paraffin tumor sections were deparaffinized, rehydrated and pretreated in 10 mM citrate buffer, pH 6.0, at 98 °C for 60 minutes, followed by incubation with 4% fat-free milk in PBS for 90 minutes. For avidin/biotin blocker treatment (Invitrogen) and detection, the ABC method was used. For monoclonal antibody against Ki67 (SP6, Thermo Scientific) and CD34 (cloneQBend/10; Dako) signals were recorded using an automated instrument reagent system (Discovery XT, Ventana Medical System Inc.). Images of hematoxylin-counterstained sections were captured (Nikon, YTHM) and analyzed using ImageAccess Enterprise7 and ImageJ software. Tumor necrotic areas and vascularization were analyzed in 10 (RAD001 and PBS) and 8 (metformin) images, whereas Ki67 and mitotic index in 15 (RAD001 and PBS) and 12 (metformin) images.

[5] = test system: A431/CCKBR-tumor bearing nude mice; conditions: for influence on [177Lu]Lu-PP-F11N tumor uptake: three doses of metformin or one RAD001 dose
[6] = test system: A431/CCKBR-tumor bearing nude mice; assay: Tumor volume, mouse weight and toxicity during treatment; assay type: in vivo
A431/CCKBR cells [7] = conditions: 100 nM RAD001 or 10 mM metformin; for internalization ratio [treatment/control]: 20 h; for [177Lu]Lu-PP-F11N internalization in treated cells: 20 h treatment, 0.3 pmol radioligand 1 h, triplicate
Protocol: Radioactive medium (and PBS wash) was collected and the cells were washed 2× with glycine buffer (pH=2) for 5 min at RT followed by a dissolving step in 1 M NaOH for 15 min at 37°C. All 3 fractions (medium/PBS; glycine; dissolved cells) were measured on Cobra II Auto-Gamma counter (Packard). For the cell uptake analysis, the PBS-washed cells were directly dissolved in 1M NaOH, or combined glycine-wash and 1M NaOH dissolved cells, were measured on the Gamma counter. […] Protein concentration of cell lysates was measured by using NanoPhotometer® UV-Vis P-Class (Implen).

A431 cells = assay: Total protein concentration of cell lysates; assay type: cell-based, human; conditions: 100 nM RAD001
Source text: as §2

AR42J cells [8] = assay type: cell-based, rat
Source text: as §2

AR42J cells [9] = assay: Total protein concentration of cell lysates; assay type: cell-based, rat; conditions: 100 nM RAD001
Source text: as §2

[10] = test system: β-arrestin-2 recruitment to CCKBR; assay: Split luciferase arrestin recruitment assay; assay type: cell-based, human; conditions: RAD001 20 h, then 1 µM PP-F11N
A431/CCKBR cells [11] = assay: Hoechst fluorescence cell number control; assay type: cell-based, human; conditions: RAD001 pretreatment 20 h
[12] = test system: β-arrestin-1 recruitment to CCKBR; assay: Split luciferase arrestin recruitment assay; assay type: cell-based, human; conditions: RAD001 20 h, then 1 µM PP-F11N
CCKBR = assay: WB analysis of CCKBR protein level in deglycosylated lysates; assay type: cell-based, human; conditions: 50 or 100 nM RAD001, 20 h; A431/CCKBR; CCKBR/GAPDH
Protocol: as §1

[13] = clinical study; cited from earlier work
Source text: Overexpression of G-protein coupled receptors (GPCRs) that selectively bind their peptide ligands allowed the development of the peptide receptor radionuclide therapy (PRRT) for human cancers. One of the most important properties of PRRT is a high uptake ratio of tumor-to-healthy-tissue in terms of radiolabeled ligands. Consequently, the molecular strategies which increase uptake of radiopharmaceuticals selectively in cancer tissue while sparing healthy organs from cytotoxic side effects have huge potential to improve PRRT efficacy. Activated GPCRs by agonistic ligand-based radiotherapeuti ...

in vivo = conditions: female, CD-1 nude, mouse, iv, 3 pmol, total radioactivity, Uptake [% i.A./g], PBS group, control PBS-treated mice, 3 pmol i.v., 4 h post injection, mean

| SMILES | Proliferation [A570] (A431/CCKBR cells [1]) | Proliferation (ratio) (A431/CCKBR cells [1]) | Uptake (ratio) (A431/CCKBR cells [2]) | phosphorylation of S6 at Ser235/236 (WB) [3] | total protein level compared to control (A431/CCKBR cells [4]) [%] | mitotic index (A431/CCKBR tumors) | tumor vascularization (A431/CCKBR tumors) | necrosis (necrotic area) (A431/CCKBR tumors) | Ki67 positive cells (A431/CCKBR tumors) | influence on [177Lu]Lu-PP-F11N tumor uptake [5] | mouse weight ([6]; 3 daily doses) | tumor volume ([6]; 3 daily doses) | mouse weight ([6]; 5 days daily treatment) | tumor volume ([6]; 5 days daily treatment) | internalization ratio [treatment/control] (A431/CCKBR cells [7]) | [177Lu]Lu-PP-F11N internalization in treated cells (A431/CCKBR cells [7]) [%] | further results |
| --- | --- | --- | --- | --- | --- | --- | --- | --- | --- | --- | --- | --- | --- | --- | --- | --- | --- |
| O=C(O)c1ccc2nc(-c3ccccc3)c(-c3ccccc3)nc2c1 [BML-257] | 0.95 | 0.98 | 1.26 |  |  |  |  |  |  |  |  |  |  |  |  |  |  |
| CN(C)C(=N)N=C(N)N [Metformin, metformin] |  |  |  | lack of mTORC1-regulated phosphorylation | 80 | did not cause a significant change | No significant difference | did not show a significant difference | did not cause a significant change | only moderately and did not reach statistical significance | no effects | no effects | no effects | no effects | 1.3 | 21.1 |  |
| CO[C@H]1C[C@@H]2CC[C@@H](C)[C@@](O)(O2)C(=O)C(=O)N2CCCC[C@H]2C(=O)O[C@H]([C@H](C)C[C@@H]2CC[C@@H](OCCO)[C@H](OC)C2)CC(=O)[C@H](C)/C=C(\C)[C@@H](O)[C@@H](OC)C(=O)[C@H](C)C[C@H](C)/C=C/C=C/C=C/1C [RAD001, Everolimus] |  |  |  | lack of mTORC1-regulated phosphorylation | 79 | 0.75% and 0.75 ± 0.36% | No significant difference | 10.6 ± 6.4% | 61% and 61 ± 8.6% | only moderately and did not reach statistical significance | without influencing overall mouse weight | significantly reduced tumor volumes | without influencing overall mouse weight | significantly reduced tumor volumes | 1.5 | 24.3 | S6 phosphorylation (WB) ([3]; 20 h incubation with 50, 100 and 200 nM RAD001, A431/CCKBR): inhibited S6 phosphorylation; total protein level compared to control (A431 cells): 79%; internalization ratio [RAD001/control] (AR42J cells [8]): 1.7; [177Lu]Lu-PP-F11N internalization in treated cells (AR42J cells [8]; 100 nM RAD001): 10%; [177Lu]Lu-PP-F11N uptake in tumors of matching sizes ([5]; tumors ranging from 50-150 or 50-180 mg): statistically significant increase; total protein level compared to control (AR42J cells [9]): 84%; effect of RAD001 on β-arrestin-2 recruitment [10]: no difference; cell number by Hoechst fluorescence (A431/CCKBR cells [11]): significantly reduced cell number; effect of RAD001 on β-arrestin-1 recruitment [12]: no difference; increase of CCKBR level (CCKBR): 2.2 fold |
| CO[C@H]1C[C@@H]2CC[C@@H](C)[C@@](O)(O2)C(=O)C(=O)N2CCCC[C@H]2C(=O)O[C@H]([C@H](C)C[C@@H]2CC[C@@H](O)[C@H](OC)C2)CC(=O)[C@H](C)/C=C(\C)[C@@H](O)[C@@H](OC)C(=O)[C@H](C)C[C@H](C)/C=C/C=C/C=C/1C [Rapamycin] | 0.91 | 0.94 | 1.24 |  |  |  |  |  |  |  |  |  |  |  |  |  | decrease of total protein level (A431/CCKBR cells [4]; 10 µM, lysates of validation experiment): 26% |
| CCCC[C@H](NC(=O)[C@H](Cc1c[nH]c2ccccc12)NC(=O)CNC(=O)[C@H](Cc1ccc(O)cc1)NC(=O)[C@H](C)NC(=O)[C@@H](CCC(=O)O)NC(=O)[C@@H](CCC(=O)O)NC(=O)[C@@H](CCC(=O)O)NC(=O)[C@@H](CCC(=O)O)NC(=O)[C@@H](CCC(=O)O)NC(=O)[C@@H](CCC(=O)O)NC(=O)CN1CCN(CC(=O)O)CCN(CC(=O)O)CCN(CC(=O)O)CC1)C(=O)N[C@@H](CC(=O)O)C(=O)N[C@@H](Cc1ccccc1)C(N)=O [[^177Lu]Lu-PP-F11N, [^177Lu]Lu-DOTA-(DGlu)6-Ala-Tyr-Gly-Trp-Nle-Asp-Phe-NH2, metal not drawn] |  |  |  |  |  |  |  |  |  |  |  |  |  |  |  |  | median tumor-to-kidney dose ratio [13]: 11.6; tumor-to-stomach dose ratio [13]: 3.34; tissue uptake at 4 h (in vivo; Blood): 0.043 %ID/g; tissue uptake at 4 h (in vivo; Bone): 0.37 %ID/g; tissue uptake at 4 h (in vivo; Brain): 0.03 %ID/g; tissue uptake at 4 h (in vivo; Intestines): 0.23 %ID/g; tissue uptake at 4 h (in vivo; Kidney): 3.07 %ID/g; tissue uptake at 4 h (in vivo; Liver): 0.17 %ID/g; tissue uptake at 4 h (in vivo; Lung): 0.08 %ID/g; tissue uptake at 4 h (in vivo; Pancreas): 0.12 %ID/g; tissue uptake at 4 h (in vivo; Spleen): 0.1 %ID/g; tissue uptake at 4 h (in vivo; Stomach): 1.01 %ID/g; tissue uptake at 4 h (in vivo; Tumor, n=6): 10.9 %ID/g |
